Measurements as given in patent US20040102367A1, “Gene expression system based on chimeric receptors” (priority 2002, published 2004).

Columns and labels:
[1] = biological target: T1, GRU1.2D-3 (Bombyx mori, UniProt P49881); assay: transient transfection luciferase expression assay (GalO-luc reporter) with VHB and GRU1.2D-3; format: cell-based; details: GRU1.2D-3 point mutant (Cys329 to Gly); 1 micromolar ligand, 48 hrs
T1 construct: BEcR hinge domain and HBD (corresponding to amino acids 272 to 606); expressed in transfected cells
T1 sequence (P49881 272-606): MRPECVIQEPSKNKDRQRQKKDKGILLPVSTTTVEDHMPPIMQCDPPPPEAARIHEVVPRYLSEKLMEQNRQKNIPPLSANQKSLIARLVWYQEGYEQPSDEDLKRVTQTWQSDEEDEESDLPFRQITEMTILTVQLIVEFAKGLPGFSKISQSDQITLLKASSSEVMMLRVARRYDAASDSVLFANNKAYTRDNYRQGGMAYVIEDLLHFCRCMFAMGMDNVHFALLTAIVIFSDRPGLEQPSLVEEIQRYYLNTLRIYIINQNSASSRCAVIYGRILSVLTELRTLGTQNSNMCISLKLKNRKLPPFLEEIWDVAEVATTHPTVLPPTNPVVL
Procedure: (§1) All construction and cloning was performed by standard methods and as described by Suhr et al., in Proc Natl Acad Sci USA 95(14):7999-8004 (1998) for similar chimeric proteins. For the VHB protein combining the transactivation domain of HSV VP16 protein with the hinge and hormone binding/heterodimerization domain (HBD) of Bombyx mori EcR (BEcR), the 77 amino acid (231 base pair) VP16 domain was amplified by PCR with an in-frame Mlul site at the 3′ end that was ligated with an identical site introduced into the 5′ end of the BEcR hinge domain and HBD (corresponding to amino acids 272 to 606). The final construct, termed VHB, functionally couples the VP16 domain with the BEcR high-affinity hormone responsive domains (see FIG. 3). This DNA was introduced into a number of expression constructs for expression in transduced cells.
(§2) The DNA-binding dimer partner protein fused the 95 amino acid Gal4 DNA binding domain via a BspE I site at the 3′ end to a region of either the RXR or Usp protein with high affinity ligand dependent interaction with BEcR. These variants used amino acids 200-462 of the human RXR alpha protein or amino acids 169-507 of the Drosophila Usp protein (see FIG. 3). These proteins are termed GR (for the RXR variant) or GU (for the Usp variant). […]

[2] = biological target: T2, GRU variant 1.2 (Bombyx mori, UniProt P49881); assay: transient transfection luciferase expression assay (GalO-luc reporter) with RXR-USP chimeric protein GRU variant 1.2; format: cell-based; details: 1 micromolar ligand, 48 hrs
T2 construct: BEcR hinge domain and HBD (corresponding to amino acids 272 to 606); expressed in transfected cells
T2 sequence (P49881 272-606): T1 sequence (P49881 272-606)
Procedure: as §1, §2

[3] = biological target: T3, EcR+Usp (Drosophila melanogaster, UniProt P34021); details: cited from earlier work
T3 sequence (P34021 1-878): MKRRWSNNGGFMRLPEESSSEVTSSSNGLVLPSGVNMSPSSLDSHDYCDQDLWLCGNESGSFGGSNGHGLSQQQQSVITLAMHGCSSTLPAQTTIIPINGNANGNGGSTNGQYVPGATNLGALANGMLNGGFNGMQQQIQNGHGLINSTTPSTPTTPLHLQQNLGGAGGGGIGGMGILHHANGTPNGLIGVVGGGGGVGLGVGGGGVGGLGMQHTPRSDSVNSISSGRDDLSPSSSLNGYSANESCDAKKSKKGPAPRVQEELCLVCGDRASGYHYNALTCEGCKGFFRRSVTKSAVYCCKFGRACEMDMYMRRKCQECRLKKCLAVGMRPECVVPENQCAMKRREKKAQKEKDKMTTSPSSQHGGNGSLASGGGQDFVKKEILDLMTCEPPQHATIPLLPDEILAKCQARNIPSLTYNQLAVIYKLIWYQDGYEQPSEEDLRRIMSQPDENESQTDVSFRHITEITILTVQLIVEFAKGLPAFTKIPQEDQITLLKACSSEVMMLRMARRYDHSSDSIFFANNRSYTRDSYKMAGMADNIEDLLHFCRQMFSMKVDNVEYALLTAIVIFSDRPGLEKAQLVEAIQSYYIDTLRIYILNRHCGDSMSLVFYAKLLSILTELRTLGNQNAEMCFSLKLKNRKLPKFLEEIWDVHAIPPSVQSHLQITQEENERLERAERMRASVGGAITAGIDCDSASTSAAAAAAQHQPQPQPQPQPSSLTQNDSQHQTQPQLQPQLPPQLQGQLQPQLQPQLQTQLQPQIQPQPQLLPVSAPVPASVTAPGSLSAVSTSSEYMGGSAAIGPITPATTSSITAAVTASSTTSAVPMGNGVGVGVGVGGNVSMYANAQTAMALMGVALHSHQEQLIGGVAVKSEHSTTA
T3 sequence (P20153 1-508 partner): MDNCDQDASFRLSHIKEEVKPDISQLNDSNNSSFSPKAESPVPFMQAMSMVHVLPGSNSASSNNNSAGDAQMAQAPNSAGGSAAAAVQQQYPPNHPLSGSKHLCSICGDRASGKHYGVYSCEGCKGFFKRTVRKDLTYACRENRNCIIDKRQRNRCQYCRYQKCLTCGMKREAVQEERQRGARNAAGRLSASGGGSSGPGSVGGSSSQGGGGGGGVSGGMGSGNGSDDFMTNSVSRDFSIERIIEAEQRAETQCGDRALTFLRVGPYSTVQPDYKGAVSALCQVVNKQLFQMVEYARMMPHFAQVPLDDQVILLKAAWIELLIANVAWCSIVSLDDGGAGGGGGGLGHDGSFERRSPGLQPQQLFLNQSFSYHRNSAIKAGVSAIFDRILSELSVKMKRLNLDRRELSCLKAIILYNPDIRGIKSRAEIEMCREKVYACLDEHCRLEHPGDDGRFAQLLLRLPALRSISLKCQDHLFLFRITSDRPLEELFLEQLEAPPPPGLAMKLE

[4] = test system: mammals and other non-insect species; details: extensive testing in animal hosts; cited from earlier work
[5] = biological target: T4, EcR+RXR (Drosophila melanogaster, UniProt P34021); details: compared with 20-hydroxyecdysone; literature; cited from earlier work
T4 sequence (P34021 1-878): T3 sequence (P34021 1-878)
T4 sequence (P19793 1-462 partner): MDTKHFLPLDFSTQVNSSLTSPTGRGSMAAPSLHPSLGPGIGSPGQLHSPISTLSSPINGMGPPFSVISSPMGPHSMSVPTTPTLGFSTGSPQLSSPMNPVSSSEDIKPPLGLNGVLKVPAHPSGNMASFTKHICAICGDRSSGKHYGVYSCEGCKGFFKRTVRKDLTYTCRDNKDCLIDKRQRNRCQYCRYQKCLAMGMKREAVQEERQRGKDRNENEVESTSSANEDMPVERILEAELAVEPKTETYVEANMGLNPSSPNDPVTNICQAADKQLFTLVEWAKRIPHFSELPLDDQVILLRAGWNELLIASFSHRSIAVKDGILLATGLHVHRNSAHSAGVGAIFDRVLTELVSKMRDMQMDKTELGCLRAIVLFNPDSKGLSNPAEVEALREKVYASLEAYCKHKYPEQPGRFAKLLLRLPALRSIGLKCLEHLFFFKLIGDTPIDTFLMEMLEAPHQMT

Q: Which “response to ligand (transactivation)” value [1] does the source give for CC(C)(O)CC[C@@H](O)[C@](C)(O)[C@H]1CC[C@@]2(O)C3=CC(=O)[C@@H]4C[C@@H](O)[C@@H](O)C[C@]4(C)[C@H]3CC[C@]12C [20-OH ecdysone, 20-Hydroxy-ecdysone] here?
A: high level response

Q: What about the “response to ligand (transactivation)” value [2] of the same compound?
A: good response

Q: What about the “stimulation of formation of EcR+Usp heterodimers” value ([3]; literature) of the same compound?
A: potently stimulated

Q: With CCc1ccc(C(=O)NN(C(=O)c2cc(C)cc(C)c2)C(C)(C)C)cc1 [tebufenozide] as the compound, how does the “response to ligand (transactivation)” value [1] read?
A: high level response

Q: And the “response to ligand (transactivation)” value [2]?
A: good response

Q: What about the “toxicity to mammals and other non-insect species” value [4] of the same compound?
A: very low toxicity

Q: Which “stimulation of EcR+Usp binding of EcREs over levels without ligand” value ([3]; literature (Christopherson, Thomas, Yao)) does the source give for CC(C)CC[C@@H](O)[C@](C)(O)[C@H]1CC[C@@]2(O)C3=CC(=O)[C@]4(O)C[C@@H](O)[C@@H](O)C[C@]4(C)[C@H]3[C@H](O)C[C@]12C [muristerone A] here?
A: 3 to 7 fold

Q: What about the “stimulation of formation of EcR+RXR heterodimers” value [5] of the same compound?
A: more highly stimulated
